We go through two molecules from patent US20230124142A1, “NEW THERAPEUTIC TARGETS WITH AN ANTI-INFLAMMATORY AND ANTI-INTERFERON EFFECT” (UNIVERSITÉ PARIS CITÉ, priority 2020, published 2023).

Series [1] relates to peripheral blood mononuclear cells (PBMCs) of healthy donors. In words: Secretion of inflammatory cytokines and interferons by PBMCs after TLR7/8 (R848) stimulation, LegendPlex.
Series [2] relates to peripheral blood mononuclear cells (PBMCs). The series is described as follows: Interferon production by cGAMP-activated PBMCs, STING-37 reporter cell line. Conditions: inhibitor 1 h before cGAMP 3 μg/ml, 24 h, STING-37 reporter (FIG. 22A, 23A).
Series [3] relates to activated immune cells. In words: Secretion of inflammatory cytokines and interferons by activated immune cells placed in contact with ROCK inhibitor. The class given is cell-based. Conditions: compared with activated immune cells not placed in contact with the inhibitor.
The test system of series [4] is neurones infected by the prions. The class given is cell-based.
The subject of series [5] is HEK293 non-immune cell line. The series is described as follows: Interferon production by cGAMP-activated HEK293 non-immune cells (STING-37), luciferase. Conditions: inhibitor at 1 μM (FIG. 23C).
Series [6] concerns THP1-Dual human monocyte cell line. In words: Interferon response of cGAMP-activated THP1-Dual cells, luciferase. Conditions: inhibitor 1 h before cGAMP 3 μg/ml, 24 h, luciferase (FIG. 22B, 23B).
Series [7] relates to peripheral blood mononuclear cells (PBMCs). In words: Cell toxicity on PBMCs, ATP quantification with CellTiter Glo. The format is cell-based, human. Conditions: cGAMP 24 h. A general note: In ATP-based viability assays light output follows the ATP content of the culture.
The test system of series [8] is THP1-Dual human monocyte cell line. In words: Cell toxicity on THP1-Dual, ATP quantification with CellTiter Glo. The format is cell-based. Particulars: cGAMP 24 h.
In series [9] the test system is peripheral blood mononuclear cells (PBMCs) of healthy donors. In words: Toxicity on PBMCs (CellTiter-Glo), TLR7/8 stimulation. The format is cell-based, human. Conditions: TLR 7/8 stimulation, 24 h, CellTiter-Glo (FIG. 4). Here is the method: Test for toxicity of the compounds on the peripheral blood mononuclear cells (PBMCs).
(§1) After 24 h of cell culture, the cell viability was determined using the CellTiter-Glo reagent (Promega), which evaluates the amount of ATP by luminescence using the EnSpire.

Series [10] deals with monocytes of healthy donors. In words: Intracellular IL1β and TNFα in monocytes after inflammasome activation by uric acid crystals (MSU, gout model), flow cytometry. The class given is cell-based, human. Here is the method: The cells were rinsed in PBS then incubated with a viability dye (Zombie Aqua, Biolegend) for 30 min at ambient temperature. After washing, the cells were resuspended in PBS containing 2% SVF and 2 mM EDTA then labelled with the APC Vio770 anti-CD14 (clone REA599) antibody from Miltenyi Biotec, used at 1/100°. […] Data acquisition was carried out on the Canto II flow cytometer using the Diva software (BD Biosciences, San Jose, Calif.). The Kaluza software was used to analyze the data.
Background: A flow cytometer gives signals particle by particle.

Series [11] relates to monocytes of patients suffering from juvenile idiopathic arthritis. The series is described as follows: Spontaneous TNFα production by monocytes of juvenile idiopathic arthritis patients, SIMOA (digital ELISA). The class given is cell-based, human. Conditions: inhibitor 24 h, SIMOA (FIG. 16). Here is the method:
The assay of the TNFα secreted by the monocytes of a patient suffering from juvenile idiopathic arthritis was carried out by SIMOA (digital ELISA).
For orientation: In an ELISA, binding on a coated surface is turned into a signal by an enzyme label.

The test system of series [12] is peripheral blood mononuclear cells (PBMCs) of healthy donors. In words: Secretion of inflammatory cytokines and interferons by PBMCs in response to HIV, LegendPlex. The class given is cell-based, human. Particulars: 24 h, LegendPlex (FIG. 13).
Series [13] deals with monocytes of healthy donors. In words: Intracellular TNFα production in monocytes after TLR2 (lipoteichoic acid, LTA) stimulation, flow cytometry. The format is cell-based, human. Conditions: inhibitor 1 h before LTA (TLR2) 1 μg/ml, 16 h, flow cytometry (FIG. 6). Here is the method: (§2) The cells were rinsed in PBS then incubated with a viability dye (Zombie Aqua, Biolegend) for 30 min at ambient temperature. After washing, the cells were resuspended in PBS containing 2% SVF and 2 mM EDTA then labelled with the APC Vio770 anti-CD14 (clone REA599) antibody from Miltenyi Biotec, used at 1/100°. […] The cells were fixed for 20 min at ambient temperature with 250 μL Inside Fix solution then labelled in 100 μL Inside Perm solution containing the PE anti-TNFα (Miltenyi Biotec) and/or APC anti-IL-1β (Miltenyi Biotec) antibody at 1/50° for 30 min at ambient temperature. Data acquisition was carried out on the Canto II flow cytometer using the Diva software (BD Biosciences, San Jose, Calif.). The Kaluza software was used to analyze the data.

For series [14], the system named is monocytes of healthy donors. In words: Intracellular TNFα production in monocytes after TLR4 (LPS) stimulation, flow cytometry. Conditions: inhibitor 1 h before LPS (TLR4) 100 ng/ml, 16 h, flow cytometry (FIG. 5). The format is cell-based, human. Here is the method: as §2
In series [15] the test system is peripheral blood mononuclear cells (PBMCs) of healthy donors. In words: Interferon secretion by R848-stimulated PBMCs, inhibitor before, during or after stimulation, STING-37 reporter cell line. The class given is cell-based, human.
The test system is the same in series [16]. In words: Toxicity on PBMCs (CellTiter-Glo), HIV. The class given is cell-based, human. Conditions: PBMCs of healthy donors infected with HIV, 24 h, CellTiter-Glo (FIG. 14). Here is the method:
as §1

Series [17] has the same test system. The series is described as follows: Toxicity on PBMCs (CellTiter-Glo), TLR4 stimulation. The class given is cell-based, human. Conditions: 24 h, CellTiter-Glo (FIG. 8). Here is the method:
as §1

The subject of series [18] is plasmacytoid dendritic cells (pDC) of healthy donors. The series is described as follows: Intracellular IFNα and TNFα in plasmacytoid dendritic cells in response to HIV, flow cytometry. The class given is cell-based, human. Conditions: AT-2-inactivated HIV-1MN, 16 h. Here is the method: The cells were rinsed in PBS then incubated with a viability dye (Zombie Aqua, Biolegend) for 30 min at ambient temperature. After washing, the cells were resuspended in PBS containing 2% SVF and 2 mM EDTA then labelled with the APC Vio770 anti-CD14 (clone REA599) antibody from Miltenyi Biotec, used at 1/100°. For the intracellular labelling of TNFα and IFNα, the “Inside Stain” kit (Miltenyi Biotec) was used according to the manufacturer's protocol. The cells were fixed for 20 min at ambient temperature with 250 μL Inside Fix solution then labelled in 100 μL Inside Perm solution containing the APC anti-TNFα (Miltenyi Biotec) and/or PE anti-IFNα (Miltenyi Biotec) antibody at 1/50° for 30 min at ambient temperature. Data acquisition was carried out on the Canto II flow cytometer using the Diva software (BD Biosciences, San Jose, Calif.). The Kaluza software was used to analyze the data.

The subject of series [19] is peripheral blood mononuclear cells (PBMCs) of healthy donors. The series is described as follows: Secretion of inflammatory cytokines and interferons by PBMCs after TLR4 stimulation, LegendPlex. The class given is cell-based, human. Particulars: 24 h, LegendPlex (FIG. 7).
For series [20], the system named is immune cells (PBMCs and purified monocytes) of healthy donors. In words: Production of inflammatory cytokines by PBMCs and purified monocytes after TLR2/4 stimulation by bacterial agents. The class given is cell-based, human. Conditions: TLR 2/4 stimulation by lipoteichoic acid/LPS.
For series [21], the system named is monocytes of healthy donors. The series is described as follows: Intracellular TNFα production in monocytes after TLR7/8 (Resiquimod-R848) stimulation, flow cytometry. Particulars: inhibitor 1 h before R848 (TLR7/8), 16 h, flow cytometry (FIG. 1, 2). The class given is cell-based, human. Here is the method: The cells were rinsed in PBS then incubated with a viability dye (Zombie Aqua, Biolegend) for 30 min at ambient temperature. After washing, the cells were resuspended in PBS containing 2% SVF and 2 mM EDTA then labelled with the APC Vio770 anti-CD14 (clone REA599) antibody from Miltenyi Biotec, used at 1/100°. […] Data acquisition was carried out on the […] flow cytometer using the Diva software (BD Biosciences, San Jose, Calif.). The Kaluza software was used to analyze the data.

Setting [22] is: PBMCs of healthy donors, inhibitor 1 h before R848 (TLR7/8), 24 h, LegendPlex (FIG. 3).

As to `Cc1cncc2cccc(S(=O)(=O)N3CCCNCC3C)c12` (stereo not drawn) [dimethylfasudil], in [1] (human PBMCs incubated with inhibitor before R848 stimulation), the “production of TNFα and of pro-inflammatory cytokines such as IL-6, IL-1β and the interferons induced by the TLR7/8 stimulation” value was “inhibits the production”. The “production of interferons (IFN) induced by the cGAMP” value in [2] and in [6] was “blocks the production of interferons (IFN) induced by the cGAMP according to a dosage effect starting from 1 μM” each time. In series [3], the “secretion of the inflammatory cytokines (TNFα, IL-1β, IL6, MCP1 (CCL2)) and of the interferons (IFN)” value is “inhibits the secretion”. For the same molecule, the “level of TNFα in the culture medium” value in [4] is “re-establishes a “normal” level”. The “production of interferon induced by the STING ligand” value in series [5] is “does not block”. Also, the “viability of the PBMCs” value in series [7] is recorded as “without affecting the viability”. Moreover, the “viability of the THP1-Dual” value in series [8] is given as “without affecting the viability”.

Turning to BX912, in [9], the “toxicity on the immune cells (PBMCs)” value is “no toxicity”. Further, the “production of inflammatory cytokines” value in [10] (activation of the inflammasome by uric acid crystals (mimicking gout)) and in [20] was “capable of inhibiting the production of inflammatory cytokines” throughout. In series [10] (uric acid crystals (MSU) 50 μg/ml, 16 h, gout model (FIG. 9)), the “intracellular production of IL1β” value was “inhibits the intracellular production”. Moreover, the “production of TNFα” value is reported as “inhibits the production” in series [10] (uric acid crystals (MSU) 50 μg/ml, 16 h, gout model (FIG. 10)) and “inhibits the production” in series [18] (flow cytometry (FIG. 12)). Besides, the “secretion of the inflammatory cytokines (IL-6, IL-1β, TNFα, IP10, GM-CSF, IL-10)” value in series [1] (setting [22]) is “inhibits the secretion”. In [1] (setting [22]), the “secretion of the interferons (IFNI1, IFNI2/3, IFNβ, IFNg)” value was “inhibits the secretion”. The “spontaneous production of TNFα” value in [11] was “inhibits the spontaneous production”. Also, in [12], the “secretion of the inflammatory cytokines (IL-6, IL-1β, TNFα, IP10)” value is listed as “inhibits the secretion”. Further, the “secretion of the interferons (IFNα2, IFNβ, IFNI1)” value in series [12] is “inhibits the secretion”. The “production of inflammatory cytokines (TNFα)” value was “inhibits, according to a dosage effect” in [13] and “inhibits, according to a dosage effect” in [14]. In addition, the secretion of interferons entry is “blocking” in series [15] (inhibitor during the TLR 7/8 stimulation, STING-37 reporter (FIG. 15B)); “blocking” in series [15] (inhibitor in a curative manner, 1 h after TLR 7/8 stimulation, STING-37 reporter (FIG. 15C)); “blocking” in series [15] (inhibitor in a preventive manner, 1 h before TLR 7/8 stimulation, STING-37 reporter (FIG. 15A)). The “toxicity on PBMCs” value in series [16] and in series [17] was “no toxicity” each time. Further, the “intracellular production of interferon IFNα” value in series [18] (flow cytometry (FIG. 11)) is on record as “inhibits the intracellular production”. Further, the “secretion of the inflammatory cytokines (IL-6, IL-1β, TNFα, GM-CSF, IL-10)” value in [19] is reported as “inhibits the secretion”. Moreover, the “secretion of the interferons (IFNI2/3, IFNβ, IFNg)” value in [19] is “inhibits the secretion”. In addition, the “intracellular production of inflammatory cytokines (TNFα)” value in series [21] is “inhibits, according to a dosage effect”.
